# Results taken from ChEMBL document CHEMBL1126278, “New neplanocin analogues. 1. Synthesis of 6'-modified neplanocin A derivatives as broad-spectrum antiviral agents” (J Med Chem, 1992).
# How the values were obtained:
# [1] = system: HeLa; experiment: Inhibitory effect on replication of RNA virus VSV in HeLa cell line.; type: functional, cell-based; conditions: Homo sapiens
# [2] = system: Vero; experiment: Inhibitory effect on replication of RNA virus TV in Vero cell line.; type: functional, cell-based; conditions: Chlorocebus sabaeus
# [3] = system: PRK; experiment: Inhibitory effect on replication of RNA virus cell morphology in PRK cell line.; type: functional, cell-based; conditions: Oryctolagus cuniculus
# [4] = system: HeLa; experiment: Inhibitory effect on replication of RNA virus coxsB-4 in HeLa cell line.; type: functional, cell-based; conditions: Homo sapiens
# [5] = system: HeLa; experiment: Inhibitory effect on replication of RNA virus RSV in HeLa cell line; type: functional, cell-based; conditions: Homo sapiens
# [6] = system: MT4; experiment: Inhibitory effect on replication of RNA virus cell growth in MT-4 cell line.; type: functional, cell-based; conditions: Homo sapiens
# [7] = system: HEL; experiment: Inhibitory effect on replication of DNA virus CMV (AD-169) on HEL cell line.; type: functional, cell-based; conditions: Homo sapiens
# [8] = system: Vero; experiment: Inhibitory effect on replication of RNA virus reo-1 in Vero cell line.; type: functional, cell-based; conditions: Chlorocebus sabaeus
# [9] = system: Vero; experiment: Inhibitory effect on replication of RNA virus cell morphology in Vero cell line.; type: functional, cell-based; conditions: Chlorocebus sabaeus
# [10] = system: PRK; experiment: Inhibitory effect on replication of DNA virus VV on PRK cell line.; type: functional, cell-based; conditions: Oryctolagus cuniculus
# [11] = system: HeLa; experiment: cells; conditions: Homo sapiens
# [12] = system: HEL; experiment: Inhibitory effect on replication of DNA virus CMV (Davis) on HEL cell line.; type: functional, cell-based; conditions: Homo sapiens
# [13] = Inhibitory effect on replication of DNA virus HSV-1 (KOS) in PRK cell line.; type: functional, cell-based; conditions: Oryctolagus cuniculus
# [14] = Inhibitory effect on replication of DNA virus HSV-2 (G) in PRK cell line.; type: functional, cell-based; conditions: Oryctolagus cuniculus
# [15] = system: PRK; experiment: Inhibitory effect on replication of RNA virus VSV in PRK cell line.; type: functional, cell-based; conditions: Oryctolagus cuniculus
# [16] = system: Vero; experiment: Inhibitory effect on replication of RNA virus PV-3 in Vero cell line.; type: functional, cell-based; conditions: Chlorocebus sabaeus
# [17] = system: Vero; experiment: Inhibitory effect on replication of RNA virus protein synthesis in Vero cell line.; type: functional, cell-based; conditions: Chlorocebus sabaeus
# [18] = system: Vero; experiment: Inhibitory effect on replication of RNA virus JV in Vero cell line.; type: functional, cell-based; conditions: Chlorocebus sabaeus
# [19] = system: Vero; experiment: Inhibitory effect on replication of RNA virus measles on Vero cell line.; type: functional, cell-based; conditions: Chlorocebus sabaeus
# [20] = system: MDCK; experiment: cells; conditions: Canis lupus familiaris
# [21] = system: Vero; experiment: Inhibitory effect on replication of RNA virus SV in Vero cell line.; type: functional, cell-based; conditions: Chlorocebus sabaeus
# [22] = system: Vero; experiment: Inhibitory effect on replication of RNA virus RNA synthesis in Vero cell line.; type: functional, cell-based; conditions: Chlorocebus sabaeus
# [23] = system: PRK; experiment: Inhibitory effect on replication of DNA virus Cell morphology on PRK cell line; type: functional, cell-based; conditions: Oryctolagus cuniculus
# [24] = system: MT4; experiment: Inhibitory effect on replication of DNA virus RNA virus HIV-2 in MT-4 cell line.; type: functional, cell-based; conditions: Homo sapiens
# [25] = system: Vero; experiment: Inhibitory effect on replication of RNA virus SFV in Vero cell line; type: functional, cell-based; conditions: Chlorocebus sabaeus
# [26] = system: HeLa; experiment: Inhibitory effect on replication of RNA virus cell morphology in HeLa cell line.; type: functional, cell-based; conditions: Homo sapiens
# [27] = system: Vero; experiment: Inhibitory effect on replication of RNA virus coxsB-4 in Vero cell line; type: functional, cell-based; conditions: Chlorocebus sabaeus
# [28] = system: MT4; experiment: Inhibitory effect on replication of DNA virus RNA virus HIV-1 in MT-4 cell line.; type: functional, cell-based; conditions: Homo sapiens
# [29] = system: MDCK; experiment: cells; conditions: Canis lupus familiaris; remark: listed apart in the source
# [30] = system: MDCK; experiment: Inhibitory effect on replication of RNA virus cell morphology in MDCK cell line.; type: functional, cell-based; conditions: Canis lupus familiaris
# [31] = system: HEL; experiment: Inhibitory effect on replication of DNA virus TK-VZV (YSR) on HEL cell line.; type: functional, cell-based; conditions: Homo sapiens
# [32] = system: HEL; experiment: Inhibitory effect on replication of DNA virus VZV (YS) on HEL cell line.; type: functional, cell-based; conditions: Homo sapiens
# [33] = system: HEL; experiment: Inhibitory effect on replication of DNA virus TK-VZV (07-1) on HEL cell line.; type: functional, cell-based; conditions: Homo sapiens
# [34] = system: HEL; experiment: Inhibitory effect on replication of DNA virus Cell growth on HEL cell line.; type: functional, cell-based; conditions: Homo sapiens
# [35] = system: HEL; experiment: Inhibitory effect on replication of DNA virus VZV (Oka) on HEL cell line.; type: functional, cell-based; conditions: Homo sapiens
# [36] = system: MT4; experiment: Inhibitory effect on replication of RNA virus HIV-1 in MT-4 cell line.; type: functional, cell-based; conditions: Homo sapiens
# [37] = system: MT4; experiment: Inhibitory effect on replication of RNA virus HIV-2 in MT-4 cell line.; type: functional, cell-based; conditions: Homo sapiens
# [38] = system: Vero; experiment: Inhibitory effect on replication of virus protein synthesis in Vero cell line.; type: functional, cell-based; conditions: Chlorocebus sabaeus
# [39] = system: ESM; experiment: Inhibitory effect on replication of DNA virus HSV-2 (G) in ESM cell line; type: functional, cell-based
# [40] = system: ESM; experiment: Inhibitory effect on replication of DNA virus TK-HSV-1 (B2006) on ESM cell line.; type: functional, cell-based
# [41] = system: ESM; experiment: Inhibitory effect on replication of DNA virus Cell morphology on ESM cell line; type: functional, cell-based
# [42] = system: ESM; experiment: Inhibitory effect on replication of DNA virus HSV-1 (KOS) in ESM cell line; type: functional, cell-based
# [43] = system: HeLa; experiment: Inhibitory effect on replication of DNA virus RNA virus cell morphology in HeLa cell line.; type: functional, cell-based; conditions: Homo sapiens
# [44] = system: ESM; experiment: Inhibitory effect on replication of DNA virus VV on ESM cell line.; type: functional, cell-based
# [45] = system: ESM; experiment: Inhibitory effect on replication of RNA virus cell morphology in ESM cell line.; type: functional, cell-based
# [46] = system: ESM; experiment: Inhibitory effect on replication of RNA virus VSV in ESM cell line.; type: functional, cell-based
# [47] = system: ESM; experiment: Inhibitory effect on replication of DNA virus TK-HSV-1 (VMW 1837) on ESM cell line.; type: functional, cell-based
compound,measurement,setting,value
C=CC1=C[C@@H](n2cnc3c(N)ncnc32)[C@H](O)[C@@H]1O,IC50,[1],300 µg/mL
same,IC50,[2],10 µg/mL
same,IC50,[3],> 400 µg/mL
same,IC50,[4],> 400 µg/mL
same,IC50,[5],100 µg/mL
same,IC50,[6],6 µg/mL
same,IC50,[7],18 µg/mL
same,IC50,[8],70 µg/mL
same,IC50,[9],400 µg/mL
same,IC50,[10],20 µg/mL
same,IC50,[11],> 400 µg/mL
same,IC50,[12],17 µg/mL
same,IC50,[13],> 200 µg/mL
same,IC50,[14],> 200 µg/mL
same,IC50,[15],20 µg/mL
same,IC50,[16],40 µg/mL
same,IC50,[17],47 µg/mL
same,IC50,[18],8 µg/mL
same,IC50,[19],40 µg/mL
same,IC50,[20],> 100 µg/mL
same,IC50,[21],> 200 µg/mL
same,IC50,[22],14 µg/mL
same,IC50,[23],> 400 µg/mL
same,IC50,[24],> 8 µg/mL
same,IC50,[25],> 200 µg/mL
same,IC50,[26],> 400 µg/mL
same,IC50,[27],> 200 µg/mL
same,IC50,[28],> 8 µg/mL
same,IC50,[29],> 100 µg/mL
same,IC50,[30],> 100 µg/mL
COCC1=C[C@@H](n2cnc3c(N)ncnc32)[C@H](O)[C@@H]1O,IC50,[1],150 µg/mL
same,IC50,[31],60 µg/mL
same,IC50,[2],20 µg/mL
same,IC50,[3],> 400 µg/mL
same,IC50,[4],> 200 µg/mL
same,IC50,[32],300 µg/mL
same,IC50,[5],100 µg/mL
same,IC50,[6],45 µg/mL
same,IC50,[33],100 µg/mL
same,IC50,[7],40 µg/mL
same,IC50,[8],10 µg/mL
same,IC50,[9],400 µg/mL
same,IC50,[10],20 µg/mL
same,IC50,[11],> 200 µg/mL
same,IC50,[12],25 µg/mL
same,IC50,[13],> 400 µg/mL
same,IC50,[14],> 400 µg/mL
same,IC50,[15],20 µg/mL
same,IC50,[34],200 µg/mL
same,IC50,[16],70 µg/mL
same,IC50,[35],200 µg/mL
same,IC50,[36],> 40 µg/mL
same,IC50,[18],20 µg/mL
same,IC50,[19],40 µg/mL
same,IC50,[20],> 100 µg/mL
same,IC50,[21],70 µg/mL
same,IC50,[23],> 400 µg/mL
same,IC50,[37],> 40 µg/mL
same,IC50,[25],> 400 µg/mL
same,IC50,[26],> 400 µg/mL
same,IC50,[27],> 400 µg/mL
same,IC50,[29],> 100 µg/mL
same,IC50,[30],> 100 µg/mL
Nc1ncnc2c1ncn2[C@@H]1C=C(CCl)[C@@H](O)[C@H]1O,IC50,[31],2 µg/mL
same,IC50,[2],2 µg/mL
same,IC50,[3],40 µg/mL
same,IC50,[4],> 40 µg/mL
same,IC50,[32],2 µg/mL
same,IC50,[5],0.8 µg/mL
same,IC50,[6],0.2 µg/mL
same,IC50,[33],1 µg/mL
same,IC50,[7],2 µg/mL
same,IC50,[8],0.7 µg/mL
same,IC50,[9],40 µg/mL
same,IC50,[11],> 40 µg/mL
same,IC50,[12],0.7 µg/mL
same,IC50,[13],> 20 µg/mL
same,IC50,[14],> 20 µg/mL
same,IC50,[15],0.7 µg/mL
same,IC50,[34],9 µg/mL
same,IC50,[16],7 µg/mL
same,IC50,[17],0.8 µg/mL
same,IC50,[35],2.5 µg/mL
same,IC50,[36],> 0.06 µg/mL
same,IC50,[18],2 µg/mL
same,IC50,[19],0.8 µg/mL
same,IC50,[20],> 10 µg/mL
same,IC50,[21],> 40 µg/mL
same,IC50,[23],40 µg/mL
same,IC50,[25],> 40 µg/mL
same,IC50,[27],> 40 µg/mL
same,IC50,[38],5 µg/mL
same,IC50,[29],> 10 µg/mL
same,IC50,[30],10 µg/mL
Nc1ncnc2c1ncn2[C@@H]1C=C(CO)[C@@H](O)[C@H]1O [NEOPLANOCIN A],IC50,[1],0.2 µg/mL
same,IC50,[39],10 µg/mL
same,IC50,[31],2 µg/mL
same,IC50,[2],0.4 µg/mL
same,IC50,[3],40 µg/mL
same,IC50,[4],> 40 µg/mL
same,IC50,[32],5 µg/mL
same,IC50,[40],4 µg/mL
same,IC50,[5],0.2 µg/mL
same,IC50,[41],40 µg/mL
same,IC50,[6],0.02 µg/mL
same,IC50,[42],20 µg/mL
same,IC50,[43],20 µg/mL
same,IC50,[33],5 µg/mL
same,IC50,[44],0.2 µg/mL
same,IC50,[7],0.3 µg/mL
same,IC50,[8],0.4 µg/mL
same,IC50,[9],10 µg/mL
same,IC50,[10],0.2 µg/mL
same,IC50,[11],> 40 µg/mL
same,IC50,[12],0.2 µg/mL
same,IC50,[13],> 40 µg/mL
same,IC50,[14],> 40 µg/mL
same,IC50,[15],0.2 µg/mL
same,IC50,[34],16 µg/mL
same,IC50,[16],0.4 µg/mL
same,IC50,[17],4.3 µg/mL
same,IC50,[45],40 µg/mL
same,IC50,[35],8 µg/mL
same,IC50,[36],> 0.006 µg/mL
same,IC50,[18],0.4 µg/mL
same,IC50,[19],0.2 µg/mL
same,IC50,[46],0.2 µg/mL
same,IC50,[20],> 20 µg/mL
same,IC50,[21],> 40 µg/mL
same,IC50,[22],0.21 µg/mL
same,IC50,[23],40 µg/mL
same,IC50,[25],> 40 µg/mL
same,IC50,[27],> 40 µg/mL
same,IC50,[47],7 µg/mL
same,IC50,[29],> 20 µg/mL
same,IC50,[30],20 µg/mL
